This is an account of results in patent publication US8519123B2, “Pyrrolo[2,1-C][1,4]benzodiazepine linked imidazo[1,5-A]pyridine conjugates as potential antitumour agents and process for the preparation thereof” (Council of Scientific and Industrial Research, priority 2010, dated 2013).

In assay [1] the test system is lung cancer cell line (A549). Put plainly: In vitro cytotoxicity, MTT assay, 48 h continuous drug exposure. In kind it is cell-based, human. Conditions: A549 cells, 48 h exposure. Here is the method:
(§1) In vitro biological activity studies were carried out at the pharmacology division, IICT, Hyderabad. The compounds were evaluated for in vitro anticancer activity against five tumour cell lines derived from five cancer types (breast, cervix, mouse melanoma, lung and liver cancer) as shown in Table 2. For each compound, dose response curves for each cell line were measured at a minimum of five concentrations at 10 fold dilutions. A protocol of 48 h continuous drug exposure was used and a MTT assay was used to estimate cell viability or growth. The concentration causing 50% inhibition (IC50) compared with the control was calculated. Compounds 7a-7l have been evaluated for their in vitro cytotoxicity in five cell lines from five human cancer types. The results are expressed as IC50 determined relative to that of untreated control cells (Table-2).

The subject of assay [2] is cervical cancer cell line (Hela). Described as above. In kind it is cell-based, human. Conditions: Hela cells, 48 h exposure. The procedure: as §1
The test system of assay [3] is liver cancer cell line (Hepg2). The description is as above. In kind it is cell-based, human. The note with it: Hepg2 cells, 48 h exposure. The procedure: as §1
Assay [4] deals with breast cancer cell line (MCF-7). The assay is described as above. It is filed as cell-based, human. The note with it: 48 h exposure. Here is the method: as §1
A further assay concerns calf thymus DNA (CT-DNA). Put plainly: Thermal denaturation studies with duplex-form calf thymus DNA (DNA binding affinity). The note with it: [PBD]:[DNA] molar ratio 1:5, CT-DNA 100 μM, ligand 20 μM, sodium phosphate buffer pH 7.00; for (ΔTm ° C.) after incubation at 37° C. for 0 h: 0 h incubation at 37° C.; for (ΔTm ° C.) after incubation at 37° C. for 18 h: 18 h incubation at 37° C. Here is the method:
Compounds have been subjected to thermal denaturation studies with duplex-form calf thymus DNA (CT-DNA) using a modification of a reported procedure (Newman, M. S. Carcinog-compr. Surv. 1976, 1, 203; (b) Hecht, S. S.; Loy, M.; Hoffman, Carcinog-compr. Surv. 1976, 1, 325). Working solutions in aqueous buffer (10 mM NaH2PO4/Na2HPO4, 1 mM Na2EDTA, pH 7.00+0.01) containing CT-DNA (100 μm in phosphate) and the PBD (20 μm) have been prepared by addition of concentrated PBD solutions in DMSO to obtain a fixed [PBD]/[DNA] molar ratio of 1:5. The DNA-PBD solutions have been incubated at 37° C. for 0 and 18 h prior to analysis. Samples have been monitored at 260 nm using a Beckman DU-800 spectrophotometer fitted with high performance temperature controller, and heated at 1° C. min^−1 in the 40-110° C. range. DNA helix→coil transition temperatures (Tm) have been obtained from the maxima in the d(A260)/dT derivative plots. Drug-induced alterations in DNA melting behavior are given by: ΔTm=Tm(DNA+PBD)−Tm(DNA alone), where the Tm value for the PBD-free CT-DNA is 69.1±0.01.
The DNA binding activity for these novel C8-linked imidazo[1,5-a]pyridine PBD hybrids has been examined by thermal denaturation studies using calf thymus (CT) DNA. […] The data for the compounds 7a-l is included in Table 1 for comparison.

Assay [5] concerns mouse melanoma cancer cell line (B16). The experiment in a line: In vitro cytotoxicity, MTT assay, 48 h continuous drug exposure. It is filed as cell-based. Conditions: B16 cells, 48 h exposure. The procedure: as §1
(In general: Formazan colour is commonly taken as a measure of viable cells.)

[6] abbreviates: Homo sapiens, MCF7, MCF-7 cells.

Where only a bound is given, the exact number is not on record here.

With `COc1ccc(-c2nc(C(=O)N3CCNCC3)c3ccccn23)cc1` [4b, [3-(4-methoxyphenyl)imidazo[1,5-a]pyridin-1-yl](piperazino)methanone], the half-maximal inhibitory concentration (IC50) in assay [1] (Homo sapiens), in assay [2] (Homo sapiens), in assay [3] (Homo sapiens), in assay [4] (setting [6]) and in assay [5] (Mus musculus) was greater than 100000 nM in each case. Further, in the assay with calf thymus DNA (CT-DNA), the “(ΔTm ° C.) after incubation at 37° C. for 0 h” value amounted to 1.1 °C. Moreover, in the assay with calf thymus DNA (CT-DNA), the “(ΔTm ° C.) after incubation at 37° C. for 18 h” value is 1.2 °C.

In the case of `COc1cc2c(cc1OCCCCN1CCN(C(=O)c3nc(-c4ccccc4)n4ccccc34)CC1)N=C[C@@H]1CCCN1C2=O` [7b, (11aS)-7-methoxy-8-(4-4-[(3-phenylimidazo[1,5-a]pyridin-yl)carbonyl]piperazinobutoxy)-2,3,5,11a-tetrahydro-1H-benzo[e]pyrrolo[1,2-a]azepin-5-one], the IC50 (in general, the midpoint of a concentration-inhibition curve) in assay [1] (Homo sapiens) stood at 15900 nM; in assay [2] (Homo sapiens, HeLa, 48 h) it was 1240 nM; in assay [3] (Homo sapiens, HepG2, 48 h), 2830 nM; in assay [4] (setting [6]) it was 2870 nM; in assay [5] (Mus musculus) it was 2670 nM. The “(ΔTm ° C.) after incubation at 37° C. for 0 h” value in the assay on calf thymus DNA (CT-DNA) stood at 6.0 °C. In the assay with calf thymus DNA (CT-DNA), the “(ΔTm ° C.) after incubation at 37° C. for 18 h” value came to 8.9 °C.

As for `COc1cc2c(cc1OCCCCCCN1CCN(C(=O)c3nc(-c4ccccc4)n4ccccc34)CC1)N=C[C@@H]1CCCN1C2=O` [7d], the IC50 in assay [1] (Homo sapiens) is 12400 nM; in assay [2] (Homo sapiens, HeLa, 48 h), 3970 nM; in assay [3] (Homo sapiens, HepG2, 48 h) it was 3060 nM; in assay [4] (setting [6]), 3310 nM; in assay [5] (Mus musculus) it was 1490 nM. In the assay with calf thymus DNA (CT-DNA), the “(ΔTm ° C.) after incubation at 37° C. for 0 h” value turned out to be 7.0 °C. Further, the “(ΔTm ° C.) after incubation at 37° C. for 18 h” value with calf thymus DNA (CT-DNA) was 8.0 °C.

As for `O=C(c1nc(-c2ccc(C(F)(F)F)cc2)n2ccccc12)N1CCNCC1` [4c, piperazino3-[4-(trifluoromethyl)phenyl]imidazo[1,5-a]pyridin-1-ylmethanone], the IC50 in assay [1] (Homo sapiens), in assay [2] (Homo sapiens), in assay [3] (Homo sapiens), in assay [4] (setting [6]) and in assay [5] (Mus musculus) was greater than 100000 nM in each case. For the same compound, in the assay on calf thymus DNA (CT-DNA), the “(ΔTm ° C.) after incubation at 37° C. for 0 h” value was found to be 0.1 °C. The “(ΔTm ° C.) after incubation at 37° C. for 18 h” value with calf thymus DNA (CT-DNA) was determined as 0.4 °C.

Consider `O=C(c1nc(-c2ccccc2)n2ccccc12)N1CCNCC1` [4a, (3-phenylimidazo[1,5-a]pyridin-1-yl)(piperazino)methanone], for which the IC50 in assay [1] (Homo sapiens), in assay [2] (Homo sapiens), in assay [3] (Homo sapiens), in assay [4] (setting [6]) and in assay [5] (Mus musculus) was greater than 100000 nM throughout. For the same compound, the “(ΔTm ° C.) after incubation at 37° C. for 0 h” value in the assay with calf thymus DNA (CT-DNA) was determined as 1.0 °C. The “(ΔTm ° C.) after incubation at 37° C. for 18 h” value in the assay on calf thymus DNA (CT-DNA) turned out to be 1.2 °C.

Take `C1=CC2=CN=c3ccccc3=CN2C1` [DC-81, pyrrolo[2,1-c][1,4]benzodiazepine]: the IC50 in assay [1] (Homo sapiens) was found to be 380 nM; in assay [2] (Homo sapiens, HeLa, 48 h), 2140 nM; in assay [3] (Homo sapiens, HepG2, 48 h), 2200 nM; in assay [4] (setting [6]) it was 2190 nM; in assay [5] (Mus musculus) it was 1830 nM. In the assay with calf thymus DNA (CT-DNA), the “(ΔTm ° C.) after incubation at 37° C. for 0 h” value is 0.3 °C. The “(ΔTm ° C.) after incubation at 37° C. for 18 h” value in the assay on calf thymus DNA (CT-DNA) amounted to 0.7 °C.

Regarding `COc1cccc2c1C(=O)c1c(O)c3c(c(O)c1C2=O)C[C@@](O)(C(=O)CO)C[C@@H]3O[C@H]1C[C@H](N)[C@H](O)[C@H](C)O1` [ADR, adiramycin], the concentration for half-maximal inhibition (IC50) in assay [1] amounted to 2900 nM; in assay [2] it was 130 nM; in assay [3], 1850 nM; in assay [4] (MCF-7 cells), 1600 nM; in assay [5], 340 nM.

With `COc1cc2c(cc1OCCCCCN1CCN(C(=O)c3nc(-c4ccccc4)n4ccccc34)CC1)N=C[C@@H]1CCCN1C2=O` [7c], the IC50 was 1660 nM in assay [2] (Homo sapiens, HeLa, 48 h); 3860 nM in assay [3]; 2700 nM in assay [3] (Homo sapiens, HepG2, 48 h); 2120 nM in assay [4] (setting [6]); 1870 nM in assay [5] (Mus musculus). The “(ΔTm ° C.) after incubation at 37° C. for 0 h” value in the assay on calf thymus DNA (CT-DNA) came out at 7.0 °C. Further, the “(ΔTm ° C.) after incubation at 37° C. for 18 h” value with calf thymus DNA (CT-DNA) stood at 9.0 °C.

On to `COc1cc2c(cc1OCCCN1CCN(C(=O)c3nc(-c4ccccc4)n4ccccc34)CC1)N=C[C@@H]1CCCN1C2=O` [7a, (11aS)-7-methoxy-8-(3-4-[(3-phenylimidazo[1,5-a]pyridin-yl)carbonyl]piperazinopropoxy)-2,3,5,11a-tetrahydro-1H-benzo[e]pyrrolo[1,2-a]azepin-5-one], for which the IC50 in assay [1] (Homo sapiens) is 7100 nM; in assay [2] (Homo sapiens, HeLa, 48 h) it was 2100 nM; in assay [3] (Homo sapiens, HepG2, 48 h), 2700 nM; in assay [4] (setting [6]), 1200 nM; in assay [5] (Mus musculus), 2800 nM. Moreover, the “(ΔTm ° C.) after incubation at 37° C. for 0 h” value in the assay with calf thymus DNA (CT-DNA) came out at 6.0 °C. Besides, in the assay with calf thymus DNA (CT-DNA), the “(ΔTm ° C.) after incubation at 37° C. for 18 h” value stood at 8.9 °C.
